Laboratory results: PubChem BioAssay (NCI)
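Cultured in 96-well plates, cells were exposed to test compound for 48 hours across five concentrations. GI50 marks 50% less growth. TGI marks complete inhibition of growth.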

How the values were obtained:
Assay in all cases: DTP human tumour cell line panel, 48 h
TK-10 renal = tested on: TK-10 renal
SW-620 colon = tested on: SW-620 colon
HCT-116 colon = tested on: HCT-116 colon
ACHN renal = tested on: ACHN renal
KM12 colon = tested on: KM12 colon
OVCAR-5 ovarian = tested on: OVCAR-5 ovarian
NCI-H226 lung = tested on: NCI-H226 lung
NCI-H23 lung = tested on: NCI-H23 lung
K-562 leukemia = tested on: K-562 leukemia
SK-MEL-28 melanoma = tested on: SK-MEL-28 melanoma

SMILES	GI50 (TK-10 renal) [µM]	TGI (TK-10 renal) [µM]	GI50 (SW-620 colon) [µM]	TGI (SW-620 colon) [µM]	GI50 (HCT-116 colon) [µM]	TGI (HCT-116 colon) [µM]	GI50 (ACHN renal) [µM]	TGI (ACHN renal) [µM]	GI50 (KM12 colon) [µM]	TGI (KM12 colon) [µM]	GI50 (OVCAR-5 ovarian) [µM]	TGI (OVCAR-5 ovarian) [µM]	GI50 (NCI-H226 lung) [µM]	TGI (NCI-H226 lung) [µM]	GI50 (NCI-H23 lung) [µM]	TGI (NCI-H23 lung) [µM]	GI50 (K-562 leukemia) [µM]	TGI (K-562 leukemia) [µM]	TGI (SK-MEL-28 melanoma) [µM]	GI50 (SK-MEL-28 melanoma) [µM]
CC(=O)OC12C=C(C)C(C(C)C1)C1C(=O)N(CCN3CCCCC3)C(=O)C12 (configuration not stated)	> 50	> 50	> 50	> 50	> 50	> 50	> 50	> 50	> 50	> 50	> 50	> 50	> 50	> 50	> 50	> 50	> 50	> 50		
Cc1ccc2nc(NC(=O)C(=O)C(C#N)c3ccc(Cl)cc3)sc2c1 (configuration not stated)		> 50		> 50		> 50		> 50		> 50		> 50		> 50		> 50			> 50	
O=C(Nc1ccccc1I(=O)=O)C1CCCCC1	> 100	> 100	> 100	> 100			> 100	> 100	> 100	> 100	> 100	> 100	> 100	> 100	> 100	> 100	56.8	> 100	> 100	> 100
COc1ccc2oc3c(OC)c(OC)c(OC)cc3c(=O)c2c1		> 100		> 100		> 100		> 100				> 100				> 100		> 100	> 100	
CCCCCC(=O)Nc1nc2nc[nH]c2c(=O)[nH]1		> 100		> 100		> 100		> 100		> 100		> 100		> 100		> 100		> 100		
COc1cc(C2C3=C(COC3=O)N(CCO)c3cc4c(cc32)OCCO4)cc(OC)c1OC (configuration not stated)			0.226	> 50	0.178		1.7	> 50	0.187	0.838	2.09	> 50	4.48	> 50	0.203		0.177	> 50	> 50	> 50
COCCOc1cc(C)cc(/C=C(C)/C=C/C2=C(C)CCCC2(C)C)n1		> 100		> 100		> 100		> 100		> 100		> 100		> 100		> 100			> 100	
CN(C)CCCn1c(=O)c2ccccc2c2cnc3[nH]ccc3c21			0.529	3.66	0.486	10.3	0.564	7.08	1.63	9.78	2.27	14.9	0.862	2.58	1.76	6.62	2.03	11.5	5.18	2.23
C1CCCCc2nc3c(nc2CCC1)c1nc2c(nc1c1nc4c(nc31)CCCCCCCC4)CCCCCCCC2		> 100		> 100		> 100		> 100		> 100		> 100				> 100		> 100	> 100	
CC1=C(C(=O)Nc2ccccc2)C(c2ccccc2Cl)C(C(=O)Nc2ccccc2)=C(C)N1		> 100		76.2		47.6		94.1				61.2		59		71.7		93.5	61.9	
CC1OC(=O)C(O)=C1O (configuration not stated)		> 100		> 100		> 100		> 100		> 100		> 100		> 100		> 100		> 100		
Clc1ccc(-c2c3ccc(=[N+]4CCCCC4)cc-3oc3cc(N4CCCCC4)ccc23)cc1	0.129	0.345					0.0909	0.229			0.145	0.323					0.153	0.779		
c1ccc(OCCC[P+](c2ccccc2)(c2ccccc2)c2ccccc2)cc1			2.22	> 100	1.42	13.4	8.94	52.8	0.55	10.9	4.09	> 100	2.3	30.5	1.81	10.9	0.634	16.3	13.4	1.09
COc1cc(/C=C/c2ccc(O)c(OC)c2)cc(OC)c1		68.3		> 100		> 100		80		96.5		> 100				> 100		> 100	> 100	
CCN(CC)CC1CCCCN1CC(=O)N1CC(C)C(=O)Nc2ccccc21 (configuration not stated)				> 100		> 100		> 100				> 100		> 100		> 100		> 100	> 100	
CCOC(=O)C(Cc1ccc(N(CCCl)CCCl)cc1)NC(=O)C(Cc1ccccc1)NC=O (configuration not stated)		0.275		0.414		0.535		0.105		0.638		0.548				0.399		0.365		
CCC(C)CC(C)CC(C)/C=C(\C)C1=C(C)CC(C)(O)O1 (configuration not stated)		> 100		> 100		> 100		> 100						> 100		> 100		> 100	> 100	
COc1ccc(-c2ccc(/C=N/n3c(COc4ccccc4Cl)nn(CN4CCOCC4)c3=S)o2)c([N+](=O)[O-])c1	14.9	47.9	27.4	87.1	19.6	41.1	33.6	> 100	17.1	34.6	55.3	> 100			22.9	62.7	18.2	41	> 100	46
CN1Cc2ccccc2/C=C\c2ccccc21		> 100		> 100		> 100		> 100		> 100				> 100		> 100			> 100	
